Usually IC50 stands for the concentration at which inhibition is half-maximal.

Like-named read-outs stand apart in the source and are kept apart here.

For one test, the target named is T1, EGF-R-ICD (Homo sapiens, UniProt P00533).
T1 construct: EGF-R intracellular kinase domain (EGF-R-ICD) was assayed in 20 mM Tris-HCl
Kind of test: In vitro kinase filter binding assay, EGF-R intracellular kinase domain. It is filed as biochemical. As for the experimental part:
(§1) Preparation of Enzymes and Kinase Assays. In vitro enzyme assays using EGF-R (McGlynn et al. 1992a), Abl (Geissler et al. 1992), and c-Src (Geissler et al. 1990) protein tyrosine kinases were performed in 96-well plates as a filter binding assay. Briefly, EGF-R intracellular kinase domain (EGF-R-ICD) was assayed in 20 mM Tris-HCl, pH 7.5, 10 mM MnCl2, 10 μM Na3VO4, 1 mM DTT, 0.1 μCi/assay [γ-^33P]ATP, 0.4 μM ATP, 2 μ/ml poly(Glu,Tyr 4:1) (Sigma P275), 1% DMSO, and 30 ng EGF-R-ICD in a total volume of 30 μl. The His-tagged kinase domain of c-Abl was cloned and expressed in the baculovirus/Sf9 system as described previously (Bhat et al. 1997) and assayed in 20 mM Tris-HCl, pH 7.5, 10 mM MgCl2, 10 μM Na3VO4, 1 mM DTT, 0.06 μCi/assay (=30 μl ) [γ-^32P]ATP, 5 μM ATP, 30 μg/ml poly(Ala,Glu,Lys,Tyr 6:2:5:1) (Sigma P1152), 1% DMSO, and 50 ng c-Abl enzyme. Src kinase (60 μg/ml) was preactivated with 50 μM ATP for 10 min at room temperature, and kinase inhibition was measured in 20 mM Tris-HCl, pH 7.5, 10 mM MgCl2, 10 μM Na3VO4, 1 mM DTT, 0.1 μCi/assay (=30 μl ) [γ-^33P]ATP, 20 μM ATP, 25 μg/ml poly(Glu,Tyr 4:1), 1% DMSO, and 10 ng c-Src enzyme.
(§2) GST-fused kinase domains of Kdr, Flt-1, Flk, Tek, c-Met, and c-Kit were expressed in baculovirus and purified over glutathione-Sepharose. Kinase inhibition was measured by detecting the decrease in phosphorylation of poly(Glu,Tyr 4:1) essentially as previously described for EGF-R. Each kinase was incubated under optimized buffer conditions in 20 mM Tris-HCl, pH 7.5, 1–3 mM MnCl2, 3–10 mM MgCl2, 10 μM Na3VO4, 1 mM DTT, 0.2 μCi/[γ-^33P]ATP, 1–8 μM ATP, 3–8 μg/ml poly(Glu,Tyr 4:1), 1% DMSO in a total volume of 30 μl in the presence or absence of PKI166 for 10 min at ambient temperature. Reactions were terminated by adding 10 μl of 250 mM EDTA, and the reaction mixture was transferred onto an Immobilon-PVDG membrane (Millipore, Bedford, Mass.). Following a washing (0.5% H3PO4), a soaking in EtOH, and drying, filters were counted in a liquid scintillation counter. IC50 values for PKI166 were calculated by linear regression analysis of the percentage inhibition. Inhibition of Cdc2/cyclin B protein kinase (Arion et al. 1988; Partanen et al. 1991) and PKC (McGlynn et al. 1992b) was assayed as previously described.

The next test concerns the target c-Src (Homo sapiens, UniProt P12931). Nature of the test: In vitro kinase filter binding assay, c-Src. It is filed as biochemical. As for the experimental part: as §1, with “The His-tagged kinase domain of c-Abl was cloned and expressed in the baculovirus/Sf9 system as described previously (Bhat et al. 1997) and assayed in 20 mM Tris-HCl, pH 7.5, 10 mM MgCl2, 10 μM Na3VO4, 1 mM DTT, 0.06 μCi/assay (=30 μl ) [γ-^32P]ATP, 5 μM ATP, 30 μg/ml poly(Ala,Glu,Lys,Tyr 6:2:5:1) (Sigma P1152), 1% DMSO, and 50 ng c-Abl enzyme.” left out
GST-fused kinase domains of Kdr, Flt-1, Flk, Tek, c-Met, and c-Kit were expressed in baculovirus and purified over glutathione-Sepharose. Kinase inhibition was measured by detecting the decrease in phosphorylation of poly(Glu,Tyr 4:1) essentially as previously described for EGF-R. Each kinase was incubated under optimized buffer conditions in 20 mM Tris-HCl, pH 7.5, 1–3 mM MnCl2, 3–10 mM MgCl2, 10 μM Na3VO4, 1 mM DTT, 0.2 μCi/[γ-^33P]ATP, 1–8 μM ATP, 3–8 μg/ml poly(Glu,Tyr 4:1), 1% DMSO in a total volume of 30 μl in the presence or absence of PKI166 for 10 min at ambient temperature. […]

The target of a further test is T2, Flt-1 (Homo sapiens, UniProt P17948).
T2 construct: GST-fused kinase domains of Kdr, Flt-1, Flk, Tek, c-Met, and c-Kit were expressed in baculovirus; GST; made in house
T2 sequence (P17948 827-1158 limits assumed): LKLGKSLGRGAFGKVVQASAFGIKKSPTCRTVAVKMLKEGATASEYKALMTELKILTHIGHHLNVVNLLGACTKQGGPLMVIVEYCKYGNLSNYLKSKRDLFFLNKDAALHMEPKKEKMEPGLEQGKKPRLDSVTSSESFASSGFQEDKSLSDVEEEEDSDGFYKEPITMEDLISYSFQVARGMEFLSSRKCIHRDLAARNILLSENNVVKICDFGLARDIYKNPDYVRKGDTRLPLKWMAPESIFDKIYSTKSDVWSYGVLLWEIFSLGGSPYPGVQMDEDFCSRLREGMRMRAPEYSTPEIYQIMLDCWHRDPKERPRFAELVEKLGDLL
Kind of test: GST-fused kinase domain assay, Flt-1. It is filed as biochemical. The settings on record: Flt-1, text. As for the experimental part: as §2

The target of the next test is T3, Tek (Homo sapiens, UniProt Q02763).
T3 construct: GST-fused kinase domains of Kdr, Flt-1, Flk, Tek, c-Met, and c-Kit were expressed in baculovirus; GST; made in house
Kind of test: GST-fused kinase domain assay, Tek. The test is classed as biochemical. As for the experimental part: as §2

In the next test the target is T4, c-Kit (Homo sapiens, UniProt P10721).
T4 construct: GST-fused kinase domains of Kdr, Flt-1, Flk, Tek, c-Met, and c-Kit were expressed in baculovirus; GST; made in house
Nature of the test: GST-fused kinase domain assay, c-Kit. The test is classed as biochemical. As for the experimental part: as §2

The target of the next test is Cdc2/cyclin B. Nature of the test: Cdc2/cyclin B protein kinase inhibition assay. The test is classed as biochemical. As for the experimental part: GST-fused kinase domains of Kdr, Flt-1, Flk, Tek, c-Met, and c-Kit were expressed in baculovirus and purified over glutathione-Sepharose. Kinase inhibition was measured by detecting the decrease in phosphorylation of poly(Glu,[…]:1) essentially as previously described for EGF-R. […] Reactions were terminated by adding 10 μl of 250 mM EDTA, and the reaction mixture was transferred onto an Immobilon-PVDG membrane (Millipore, Bedford, Mass.). Following a washing (0.5% H3PO4), a soaking in EtOH, and drying, filters were counted in a liquid scintillation counter. […] Inhibition of Cdc2/cyclin B protein kinase (Arion et al. 1988; […] et al. 1991) and […] et al. 1992b) was assayed as previously described.

Test [1] concerns the target T5, phosphorylated (activated) EGF-R (Mus musculus, UniProt Q01279).
T5 construct: from tissue; host or cells: UV-2237 fibrosarcoma tumours and dorsal skin/hair follicles of C3H/HeN mice
Kind of test: Activated EGF-R in UV-2237 fibrosarcoma tumors and skin/hair follicles of mice (immunohistochemistry). The test is classed as in vivo, C3H/HeN mice. Conditions: 6 administrations. As for the experimental part: C3H/HeN mice were injected subcutaneously with UV-2237 fibrosarcoma cells. Seven days after the implantation, the mice were given 3 weekley oral administrations of PBS, 10 mg/kg PKI166, 50 mg/kg PKI166, and 100 mg/kg PKI166. The mice were killed on day 15 of treatment (6 oral administrations), i.e., one day after the last oral administration.
The tumors were harvested and processed for immunohistochemistry. The contralateral dorsal skin and hair were excised and prepare for immunohistochemistry. The tumors and skin/hair samples were sectioned and stained with antibodies against the EGF-R and antibodies against the phosphorylated (activated) EGF-R. The results are shown in FIG. 8.

T1 sequence (P00533 669-1210 limits assumed): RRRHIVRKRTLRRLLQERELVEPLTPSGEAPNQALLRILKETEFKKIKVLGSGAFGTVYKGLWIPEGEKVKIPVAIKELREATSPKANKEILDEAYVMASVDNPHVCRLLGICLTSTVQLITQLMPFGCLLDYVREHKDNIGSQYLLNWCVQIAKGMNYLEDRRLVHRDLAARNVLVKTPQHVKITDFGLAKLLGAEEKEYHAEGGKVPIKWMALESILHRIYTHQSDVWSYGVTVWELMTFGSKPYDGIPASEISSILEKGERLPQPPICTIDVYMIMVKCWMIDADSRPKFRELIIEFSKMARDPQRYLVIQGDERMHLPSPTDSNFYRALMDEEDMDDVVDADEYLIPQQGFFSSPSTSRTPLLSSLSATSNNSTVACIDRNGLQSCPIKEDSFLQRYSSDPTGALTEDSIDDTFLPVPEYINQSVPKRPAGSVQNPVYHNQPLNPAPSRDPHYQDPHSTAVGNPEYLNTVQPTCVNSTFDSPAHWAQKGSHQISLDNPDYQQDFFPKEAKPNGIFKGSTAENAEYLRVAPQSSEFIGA
Chain of c-Src (P12931 whole entry, species assumed, the tested form may be a part): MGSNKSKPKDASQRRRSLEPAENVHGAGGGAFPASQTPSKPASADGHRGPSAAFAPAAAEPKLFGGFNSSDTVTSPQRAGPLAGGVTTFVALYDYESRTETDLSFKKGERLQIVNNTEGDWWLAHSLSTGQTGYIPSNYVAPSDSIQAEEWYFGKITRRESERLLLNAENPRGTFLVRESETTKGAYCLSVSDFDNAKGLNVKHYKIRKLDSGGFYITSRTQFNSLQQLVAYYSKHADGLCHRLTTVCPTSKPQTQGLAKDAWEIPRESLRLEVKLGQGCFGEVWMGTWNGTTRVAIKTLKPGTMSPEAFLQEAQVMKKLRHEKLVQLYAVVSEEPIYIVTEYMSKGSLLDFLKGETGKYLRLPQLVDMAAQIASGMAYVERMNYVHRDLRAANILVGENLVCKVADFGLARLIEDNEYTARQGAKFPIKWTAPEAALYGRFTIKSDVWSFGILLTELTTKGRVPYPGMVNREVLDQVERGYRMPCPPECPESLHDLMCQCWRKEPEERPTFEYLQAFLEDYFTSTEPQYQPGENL
T4 sequence (P10721 589-937 limits assumed): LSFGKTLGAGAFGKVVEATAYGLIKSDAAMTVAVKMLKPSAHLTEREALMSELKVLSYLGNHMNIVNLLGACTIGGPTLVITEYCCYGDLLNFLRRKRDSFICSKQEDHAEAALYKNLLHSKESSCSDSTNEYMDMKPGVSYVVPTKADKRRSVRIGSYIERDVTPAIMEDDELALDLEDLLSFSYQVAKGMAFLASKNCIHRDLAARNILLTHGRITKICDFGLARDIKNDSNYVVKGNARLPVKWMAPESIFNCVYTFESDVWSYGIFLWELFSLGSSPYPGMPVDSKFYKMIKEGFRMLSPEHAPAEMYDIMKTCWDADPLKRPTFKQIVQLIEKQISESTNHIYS
T3 sequence (Q02763 824-1096 limits assumed, species assumed): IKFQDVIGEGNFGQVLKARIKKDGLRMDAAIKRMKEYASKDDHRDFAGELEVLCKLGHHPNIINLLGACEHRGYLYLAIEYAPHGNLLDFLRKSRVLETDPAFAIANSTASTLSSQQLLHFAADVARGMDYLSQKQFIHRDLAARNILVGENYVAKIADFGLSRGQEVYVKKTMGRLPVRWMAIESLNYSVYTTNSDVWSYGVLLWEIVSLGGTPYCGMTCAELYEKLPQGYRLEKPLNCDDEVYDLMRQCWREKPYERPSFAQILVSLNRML

Take `C[C@@H](Nc1ncnc2[nH]c(-c3ccc(O)cc3)cc12)c1ccccc1` [PKI166, 4-(R)-phenethylamino-6-(hydroxyl) phenyl-7H-pyrrolo[2.3-d]-pyrimidine]: on EGF-R-ICD (enzyme kinetic studies), the “mode of inhibition of EGF-R kinase” value was “ATP-competitive inhibition”. Besides, the IC50 at EGF-R-ICD (intracellular domain (ICD) of the EGF-R kinase) was 0.7 nM; on c-Src, 103 nM; at c-Src (text), 130 nM; at Flt-1, 962 nM; at Tek, greater than 1000 nM; against c-Kit, 2210 nM. This compound also displayed an IC50 against Cdc2/cyclin B of 78000 nM. In addition, the “selectivity factor for inhibition of the EGF-R ICD” value at EGF-R-ICD (versus other tyrosine kinases (Traxler et al. 1999)) is listed as greater than 40. Further, at EGF-R-ICD (with respect to inhibition of serine/threonine kinases PKC-α and Cdc2/cyclin B), the selectivity ratio is greater than 3000. Further, in test [1] (oral 10 mg/kg), the “Expression of activated EGF-R in tumors or skin/hair follicles” value is “did not decrease”. In addition, in test [1] (oral 50 mg/kg or 100 mg/kg), the “Phosphorylation of EGF-R in tumors and skin/hair follicles” value was “inhibited phosphorylation”.

Source of the values: patent publication US7344829B2, “Methods for detecting the efficacy of anticancer treatments” (Board of Regents, the University of Texas System, priority 2000, dated 2008).
